ChEMBL document CHEMBL1156190, “Virtual screening for the identification of novel nonsteroidal glucocorticoid modulators” (J Med Chem, 2010)
Calls of active or inactive are those of the source. The calls are words filed in the database; no cut-off is given here.

What was measured:
Glucocorticoid receptor = biological target: T1, Glucocorticoid receptor (Homo sapiens, UniProt P04150); assay: Displacement of [3H]DEX from human glucocorticoid receptor
T1 sequence (P04150 whole entry): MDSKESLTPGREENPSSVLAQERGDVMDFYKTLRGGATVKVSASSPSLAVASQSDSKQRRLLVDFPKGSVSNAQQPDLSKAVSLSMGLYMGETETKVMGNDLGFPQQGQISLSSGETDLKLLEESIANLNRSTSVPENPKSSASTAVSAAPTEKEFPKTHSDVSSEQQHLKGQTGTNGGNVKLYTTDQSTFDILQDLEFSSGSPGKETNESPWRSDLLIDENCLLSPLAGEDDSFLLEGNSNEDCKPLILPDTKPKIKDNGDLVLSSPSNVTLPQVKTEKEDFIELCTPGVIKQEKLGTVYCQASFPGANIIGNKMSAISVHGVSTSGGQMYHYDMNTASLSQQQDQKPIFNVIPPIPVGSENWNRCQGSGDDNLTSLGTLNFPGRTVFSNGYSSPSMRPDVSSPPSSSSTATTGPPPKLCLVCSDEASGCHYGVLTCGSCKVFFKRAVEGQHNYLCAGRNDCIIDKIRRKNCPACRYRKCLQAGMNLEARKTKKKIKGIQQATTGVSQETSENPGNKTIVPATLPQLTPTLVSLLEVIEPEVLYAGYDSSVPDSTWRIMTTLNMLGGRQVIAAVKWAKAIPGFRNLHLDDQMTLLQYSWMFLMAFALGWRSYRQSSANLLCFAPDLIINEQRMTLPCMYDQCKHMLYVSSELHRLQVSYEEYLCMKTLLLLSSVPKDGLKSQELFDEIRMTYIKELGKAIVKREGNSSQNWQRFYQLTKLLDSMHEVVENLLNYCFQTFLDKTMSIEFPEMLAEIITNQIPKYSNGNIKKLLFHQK

[1] = biological target: Estrogen receptor beta (Homo sapiens) (UniProt Q92731); assay: Displacement of fluoromone from human recombinant ERbeta assessed as reduction of maximum polarization by fluorescence polarization assay
[2] = biological target: T2, Glucocorticoid receptor (Homo sapiens) (UniProt P04150); assay: Displacement of fluoromone from human glucocorticoid receptor LBD at 10 uM assessed as reduction of maximum polarization by fluorescence polarization assay relative to control; set-up: scale not given: the % may be the effect or the level left
T2 sequence (whole entry): T1 sequence (P04150 whole entry)

[3] = biological target: T2, Glucocorticoid receptor (Homo sapiens); assay: Transrepression activity at glucocorticoid receptor in human A549 cells assessed as inhibition of IL-1-alpha-induced IL6 expression at 10 uM after 24 hrs by ELISA; assay type: cell-based
[4] = biological target: T3, Peroxisome proliferator-activated receptor gamma (Homo sapiens) (UniProt P37231); assay: Displacement of fluoromone from human recombinant PPARgamma assessed as reduction of maximum polarization by fluorescence polarization assay
T3 sequence (whole entry): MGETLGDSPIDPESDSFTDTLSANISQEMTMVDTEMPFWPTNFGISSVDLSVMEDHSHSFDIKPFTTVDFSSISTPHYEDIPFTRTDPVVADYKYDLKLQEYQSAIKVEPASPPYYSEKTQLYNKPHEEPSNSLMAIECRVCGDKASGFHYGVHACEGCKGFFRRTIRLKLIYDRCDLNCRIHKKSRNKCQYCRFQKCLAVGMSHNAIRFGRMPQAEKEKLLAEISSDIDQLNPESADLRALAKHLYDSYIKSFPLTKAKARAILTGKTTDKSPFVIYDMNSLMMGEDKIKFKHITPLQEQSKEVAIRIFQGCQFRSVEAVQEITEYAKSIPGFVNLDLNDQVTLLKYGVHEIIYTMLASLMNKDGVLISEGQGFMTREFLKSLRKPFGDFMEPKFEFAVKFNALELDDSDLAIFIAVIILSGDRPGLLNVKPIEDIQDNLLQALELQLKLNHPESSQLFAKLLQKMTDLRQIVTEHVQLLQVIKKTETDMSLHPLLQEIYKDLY

[5] = biological target: T4, Estrogen receptor (Homo sapiens) (UniProt P03372); assay: Displacement of fluoromone from human recombinant ERalpha assessed as reduction of maximum polarization by fluorescence polarization assay
T4 sequence (whole entry): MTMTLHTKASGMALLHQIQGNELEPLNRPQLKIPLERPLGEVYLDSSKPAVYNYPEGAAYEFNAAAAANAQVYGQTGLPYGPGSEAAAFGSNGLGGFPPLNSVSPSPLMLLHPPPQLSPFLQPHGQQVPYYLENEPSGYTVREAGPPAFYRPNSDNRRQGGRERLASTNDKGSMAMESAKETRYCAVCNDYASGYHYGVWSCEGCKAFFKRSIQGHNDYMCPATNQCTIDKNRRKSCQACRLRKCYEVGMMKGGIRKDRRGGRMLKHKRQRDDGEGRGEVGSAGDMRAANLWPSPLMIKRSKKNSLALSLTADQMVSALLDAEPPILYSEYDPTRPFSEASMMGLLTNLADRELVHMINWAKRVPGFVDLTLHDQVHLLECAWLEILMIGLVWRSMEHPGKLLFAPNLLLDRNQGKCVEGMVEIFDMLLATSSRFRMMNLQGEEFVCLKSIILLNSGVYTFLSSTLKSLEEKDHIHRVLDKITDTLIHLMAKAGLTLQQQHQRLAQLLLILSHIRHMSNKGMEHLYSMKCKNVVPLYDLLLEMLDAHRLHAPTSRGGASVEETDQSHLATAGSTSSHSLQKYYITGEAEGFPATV

Sequence of Estrogen receptor beta (Homo sapiens) (Q92731 whole entry, the tested form may be a part): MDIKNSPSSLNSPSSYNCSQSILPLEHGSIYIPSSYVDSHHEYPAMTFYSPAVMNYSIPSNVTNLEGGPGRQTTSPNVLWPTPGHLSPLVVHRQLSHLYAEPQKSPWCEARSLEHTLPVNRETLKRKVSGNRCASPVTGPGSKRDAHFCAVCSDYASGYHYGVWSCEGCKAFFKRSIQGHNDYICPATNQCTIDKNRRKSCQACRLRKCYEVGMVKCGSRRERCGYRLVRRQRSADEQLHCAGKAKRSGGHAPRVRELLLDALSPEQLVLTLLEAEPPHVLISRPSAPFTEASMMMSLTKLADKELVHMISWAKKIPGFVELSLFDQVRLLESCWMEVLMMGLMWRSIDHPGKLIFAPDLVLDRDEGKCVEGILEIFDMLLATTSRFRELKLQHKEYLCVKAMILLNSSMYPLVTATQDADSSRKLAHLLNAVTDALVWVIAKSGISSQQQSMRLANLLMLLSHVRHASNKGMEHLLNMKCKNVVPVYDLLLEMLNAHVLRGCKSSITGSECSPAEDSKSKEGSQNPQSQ

| Ki (Glucocorticoid receptor) [µM] | SMILES | also measured |
| --- | --- | --- |
| 0.018 | COc1ccc2c(c1)-c1ccc3c(c1[C@H](c1ccccc1)O2)C(C)=CC(C)(C)N3 | – |
| 0.0042 | C#COc1ccc2c(c1OC)-c1ccc3c(c1[C@H](CC=C)O2)C(C)=CC(C)(C)N3 | – |
| 3.21 | C=C1CCC(Br)C(C)(C)[C@@H]1Cc1cc(OC)c(Br)cc1O (some centres undefined) | – |
| 0.0069 | C#Cc1cccc2c1-c1ccc3c(c1[C@H](CC=C)O2)C(C)=CC(C)(C)N3 | – |
| 0.002 | CC#C[C@@]1(O)CC[C@@]2(Cc3ccccc3)c3ccc(C(=O)NCc4ccncc4)cc3CC[C@@H]2C1 | – |
| 0.051 | C=CC[C@@H]1Oc2ccc(OC#N)c(OC)c2-c2ccc3c(c21)C(C)=CC(C)(C)N3 | – |
| 4.11 | C=C1C(C)CCC(C)(C)[C@@H]1Cc1cc(OC)c(Br)cc1OC(C)=O (some centres undefined) | – |
| – | O=C1CC(c2ccccc2)CC2=C1C(c1cc(Cl)ccc1Cl)Nc1ccccc1N2 (centres undefined) | Activity [1]: inactive; Activity [2]: 65%; inhibition [3]: inactive; Activity [4]: inactive; Activity [5]: inactive |
| – | COc1c(Br)cc2ccccc2c1-c1c(OC)c(CO)cc2ccccc12 | Activity [2]: 50% |
| 2.47 | C=C1CCC(Br)C(C)(C)[C@H]1Cc1cc(OC)c(Br)cc1O (some centres undefined) | – |
